Four compounds from patent publication US5093233A, “Antagonists with position 13 modification” (Merck & Co., Inc., priority 1990, dated 1992) can be followed below.

Square brackets hold non-standard residues; d marks the D form. Peptide text beside a SMILES is read from it. * marks the point of attachment. Hydrocinnamoyl = O=C(CCc1ccccc1)*; Nle = CCCC[C@H](N)C(=O)O; Hexanoyl = CCCCCC(=O)*

The assay addresses T1, PTH receptor, bovine renal cortical plasma membranes (Bos taurus, UniProt Q1LZF7).
T1 construct: from tissue; host or cells: bovine renal cortex (plasma membrane preparation)
T1 sequence (Q1LZF7 29-589): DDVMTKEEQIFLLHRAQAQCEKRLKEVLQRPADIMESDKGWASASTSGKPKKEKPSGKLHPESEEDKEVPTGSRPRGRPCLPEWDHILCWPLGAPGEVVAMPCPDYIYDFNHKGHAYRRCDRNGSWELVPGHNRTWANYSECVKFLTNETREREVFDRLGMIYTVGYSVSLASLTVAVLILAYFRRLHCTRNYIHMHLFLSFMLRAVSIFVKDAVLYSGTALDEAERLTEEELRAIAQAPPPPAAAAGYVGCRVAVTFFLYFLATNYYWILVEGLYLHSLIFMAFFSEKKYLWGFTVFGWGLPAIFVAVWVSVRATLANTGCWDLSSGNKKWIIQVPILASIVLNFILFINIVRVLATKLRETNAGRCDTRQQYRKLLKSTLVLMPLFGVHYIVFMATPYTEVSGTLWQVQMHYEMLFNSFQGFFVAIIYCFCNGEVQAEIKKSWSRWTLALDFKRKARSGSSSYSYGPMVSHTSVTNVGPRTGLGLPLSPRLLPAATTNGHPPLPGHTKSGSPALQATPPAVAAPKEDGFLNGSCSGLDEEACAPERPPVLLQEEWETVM
In words: PTH binding assay in bovine renal membranes. Particulars: radioligand [Nle8,18,125I-Tyr34]bPTH(1-34)NH2, 30 min at 21° C. The procedure:
PTH analogues were analyzed in a new receptor assay reported in Goldman et al., Endocrin. 123: 1468-1475 (1988). The binding assay used [Nle^8,18,^125 I-Tyr^34 ]bPTH (1-34)NH2 which was purified by HPLC (Novapak C18, 32-35% CH3 CN in 0.1% TFA) and was stored as aliquots in 25 mM TrisHCl/1%BSA at -70° C. Bovine renal cortical plasma membranes were incubated with radioligand (25,000 cpm) in a Tris-containing buffer (250 ul) for 30 min. at 21° C. Once equilibrium was reached, bound and free radioligand were separated by centrifugation. High specific binding (85%) to bovine renal cortical membranes was obtained consistently.
Compound `CCCC[C@H](NC(=O)CCc1ccccc1)C(=O)N[C@@H](Cc1c[nH]cn1)C(=O)N[C@@H](CC(N)=O)C(=O)N[C@@H](CC(C)C)C(=O)N[C@H](Cc1c[nH]c2ccccc12)C(=O)N[C@@H](CCCCNC(=O)CCc1ccccc1)C(=O)N[C@@H](Cc1c[nH]cn1)C(=O)N[C@@H](CC(C)C)C(=O)N[C@@H](CO)C(=O)N[C@@H](CO)C(=O)N[C@@H](CCCC)C(=O)N[C@@H](CCC(=O)O)C(=O)N[C@@H](CCCNC(=N)N)C(=O)N[C@H](C(=O)N[C@@H](CCC(=O)O)C(=O)N[C@@H](Cc1c[nH]c2ccccc12)C(=O)N[C@@H](CC(C)C)C(=O)N[C@@H](CCCNC(=N)N)C(=O)N[C@@H](CCCCN)C(=O)N[C@@H](CCCCN)C(=O)N[C@@H](CC(C)C)C(=O)N[C@@H](CCC(N)=O)C(=O)N[C@@H](CC(=O)O)C(=O)N[C@H](C(=O)N[C@@H](Cc1c[nH]cn1)C(=O)N[C@@H](CC(N)=O)C(=O)N[C@@H](Cc1ccc(O)cc1)C(N)=O)C(C)C)C(C)C` [Structure 1, desamino[Nle^8,18,D-Trp^12,Lys^13 (N^ε --CO(CH2)2 -Phenyl),Tyr^34]bPTH(7-34)NH2] (Hydrocinnamoyl-[Nle]HNL[dW]K(Hydrocinnamoyl)HLSS[Nle]ERVEWLRKKLQDVHNY-NH2) registered a Kb of 13 ± 2 nM.
With `CCCCCC(=O)N[C@@H](Cc1c[nH]cn1)C(=O)N[C@@H](CC(N)=O)C(=O)N[C@@H](CC(C)C)C(=O)N[C@H](Cc1c[nH]c2ccccc12)C(=O)N[C@@H](CCCCNC(=O)CCc1ccccc1)C(=O)N[C@@H](Cc1c[nH]cn1)C(=O)N[C@@H](CC(C)C)C(=O)N[C@@H](CO)C(=O)N[C@@H](CO)C(=O)N[C@@H](CCCC)C(=O)N[C@@H](CCC(=O)O)C(=O)N[C@@H](CCCNC(=N)N)C(=O)N[C@H](C(=O)N[C@@H](CCC(=O)O)C(=O)N[C@@H](Cc1c[nH]c2ccccc12)C(=O)N[C@@H](CC(C)C)C(=O)N[C@@H](CCCNC(=N)N)C(=O)N[C@@H](CCCCN)C(=O)N[C@@H](CCCCN)C(=O)N[C@@H](CC(C)C)C(=O)N[C@@H](CCC(N)=O)C(=O)N[C@@H](CC(=O)O)C(=O)N[C@H](C(=O)N[C@@H](Cc1c[nH]cn1)C(=O)N[C@@H](CC(N)=O)C(=O)N[C@@H](Cc1ccc(O)cc1)C(N)=O)C(C)C)C(C)C` [Structure 2, desamino[Nle^8,18,D-Trp^12,Lys^13 (N^ε --CO(CH2)2 -Phenyl),Tyr^34]bPTH(8-34)NH2] (Hexanoyl-HNL[dW]K(Hydrocinnamoyl)HLSS[Nle]ERVEWLRKKLQDVHNY-NH2) the figure was 4 ± 1 nM; with `CCCC[C@H](NC(=O)[C@H](CO)NC(=O)[C@H](CO)NC(=O)[C@H](CC(C)C)NC(=O)[C@H](Cc1c[nH]cn1)NC(=O)[C@H](CCCCNC(=O)CCc1ccccc1)NC(=O)[C@@H](Cc1c[nH]c2ccccc12)NC(=O)[C@H](CC(C)C)NC(=O)[C@H](CC(N)=O)NC(=O)[C@H](Cc1c[nH]cn1)NC(=O)[C@H](CCCC)NC(=O)[C@@H](N)Cc1ccccc1)C(=O)N[C@@H](CCC(=O)O)C(=O)N[C@@H](CCCNC(=N)N)C(=O)N[C@H](C(=O)N[C@@H](CCC(=O)O)C(=O)N[C@@H](Cc1c[nH]c2ccccc12)C(=O)N[C@@H](CC(C)C)C(=O)N[C@@H](CCCNC(=N)N)C(=O)N[C@@H](CCCCN)C(=O)N[C@@H](CCCCN)C(=O)N[C@@H](CC(C)C)C(=O)N[C@@H](CCC(N)=O)C(=O)N[C@@H](CC(=O)O)C(=O)N[C@H](C(=O)N[C@@H](Cc1c[nH]cn1)C(=O)N[C@@H](CC(N)=O)C(=O)N[C@@H](Cc1ccc(O)cc1)C(N)=O)C(C)C)C(C)C` [Structure 3, [Nle^8,18,D-Trp^12,Lys^13 (N^ε --CO(CH2)2 -Phenyl),Tyr^34]bPTH(7-34)NH2], 4 ± 1 nM.
With `CCCC[C@H](NC(=O)[C@H](CO)NC(=O)[C@H](CO)NC(=O)[C@H](CC(C)C)NC(=O)[C@H](Cc1c[nH]cn1)NC(=O)[C@H](CCCCN(CC(C)C)CC(C)C)NC(=O)[C@@H](Cc1c[nH]c2ccccc12)NC(=O)[C@H](CC(C)C)NC(=O)[C@H](CC(N)=O)NC(=O)[C@H](Cc1c[nH]cn1)NC(=O)[C@H](CCCC)NC(=O)[C@@H](N)Cc1ccccc1)C(=O)N[C@@H](CCC(=O)O)C(=O)N[C@@H](CCCNC(=N)N)C(=O)N[C@H](C(=O)N[C@@H](CCC(=O)O)C(=O)N[C@@H](Cc1c[nH]c2ccccc12)C(=O)N[C@@H](CC(C)C)C(=O)N[C@@H](CCCNC(=N)N)C(=O)N[C@@H](CCCCN)C(=O)N[C@@H](CCCCN)C(=O)N[C@@H](CC(C)C)C(=O)N[C@@H](CCC(N)=O)C(=O)N[C@@H](CC(=O)O)C(=O)N[C@H](C(=O)N[C@@H](Cc1c[nH]cn1)C(=O)N[C@@H](CC(N)=O)C(=O)N[C@@H](Cc1ccc(O)cc1)C(N)=O)C(C)C)C(C)C` [Structure 4, [Nle^8,18,D-Trp^12,Lys^13 (N^ε,N^ε -diisobutyl),Tyr^34]bPTH(7-34)NH2] the figure was 35 ± 4 nM.
